Experimental data: EP3322687B1, “2-BENZYL-INDANONE COMPOUNDS AS ANTICANCER AGENT AND A PROCESS FOR PREPARATION THEREOF” (Council of Scientific and Industrial Research, priority 2015, dated 2017)
“And” between values parts separate entries of the source, which are not always exact repeats. Equal entries are not always repeated. Where two headings read alike, the source gives them in different places.

Columns and labels:
[1] = test system: MCF-7 (Breast cancer); experiment: Sulforhodamine B cytotoxicity assay; type: cell-based; settings: Homo sapiens, MCF7; for IC50: SRB, 48 hours incubation, read-out: Human cancer cell lines IC50 MCF-7 (Breast cancer)
Procedure: (§1) The benzyl compounds were evaluated by Sulforhodamine B Assay as per reported method [Skehan etal., J. Natl. Cancer Inst.1990, 82, 1107]. The human cancer cell lines procured from National Cancer Institute, Frederick, U. S. A. were used in present study. Cells were grown in tissue culture flasks in complete growth medium (RPMI-1640 medium with 2 mM glutamine, pH 7.4 supplemented with 10% fetal bovine serum, 100 µg/ml streptomycin and 100 units/ml penicillin) in a carbon dioxide incubator (37°C, 5% CO2, 90% RH). The cells at subconfluent stage were harvested from the flask by treatment with trypsin (0.05% in PBS (pH 7.4) containing 0.02% EDTA). Cells with viability of more than 98%, as determined by trypan blue exclusion, were used for determination of cytotoxicity. The cell suspension required concentration of cells was prepared in complete growth medium. Stock solution of 2x10^-2 M of compounds were prepared in DMSO and further dilution was carried out complete growth medium containing 50µg/ml of gentamycin to obtained working test solution of required concentration. In vitro cytotoxicity against various human cancer cell lines was determined using 96-well cell culture plates. The 100µl of cell suspension was added to each well of the 96-well cell culture plates. The cells were allowed to grow in CO2 incubator (37°C, 5% CO2, 90% RH) for 24 hours. The test materials in complete growth medium (100 µl) were added after 24 hours incubation to the wells containing cell suspension. The plates were further incubated for 48 hours (37°C in an atmosphere of 5% CO2 and 90% relative humidity) in a carbon dioxide incubator after addition of test material and then the cell growth was stopped by gently layering trichloroacetic acid (50% TCA, 50 µl) on top of the medium in all the wells. The plates were incubated at 4°C for one hour to fix the cells attached to the bottom of the wells. The liquid of all the wells was gently pipetted out and discarded. The plates were washed five times with distilled water to remove TCA, growth medium low molecular weight metabolites, serum proteins etc. and air - dried. Cell growth was measured by staining with sulforhodamine B dye. The adsorbed dye was dissolved in Tris-HCl Buffer (100 µl/well, 0.01M, pH 10.4) and plates were gently stirred for 10 minutes on a mechanical stirrer. The optical density (OD) was recorded on ELISA reader at 540nm. Paclitaxel (Taxol), and 5-Fluorouracil were used as positive controls (Standard drugs).

[2] = test system: T-47D (Breast cancer); experiment: Sulforhodamine B cytotoxicity assay; type: cell-based; settings: Homo sapiens, T47D; for IC50: SRB, 48 hours incubation, read-out: Human cancer cell lines IC50 T-47D (Breast cancer)
Procedure: as §1

[3] = test system: A549 (Lung); experiment: Sulforhodamine B cytotoxicity assay; type: cell-based; settings: Homo sapiens, A549; for IC50: SRB, 48 hours incubation, read-out: Human cancer cell lines IC50 A549 (Lung)
Procedure: as §1

[4] = test system: HCT-116 (Colon); experiment: Sulforhodamine B cytotoxicity assay; type: cell-based; settings: Homo sapiens, HCT-116; for IC50: SRB, 48 hours incubation, read-out: Human cancer cell lines IC50 HCT-116 (Colon)
Procedure: as §1

[5] = test system: THP-1 (Leukemia); experiment: Sulforhodamine B cytotoxicity assay; type: cell-based; settings: Homo sapiens, THP-1; for IC50: SRB, 48 hours incubation, read-out: Human cancer cell lines IC50 THP-1 (Leukemia)
Procedure: as §1

[6] = test system: Ehrlich Ascites Carcinoma (EAC); type: in vivo, Swiss mice; settings: for % Tumor cell growth: 20 mg/kg i/p day 1-9, Day 12, control = 100; for Mortality: 20 mg/kg i/p day 1-9, Day 12, dead/total animals
Procedure: Ehrlich ascites carcinoma (EAC) cells were collected from the peritoneal cavity of the Swiss mice harbouring 8-10 days old ascitic tumor. 1x10^7 EAC cells were injected intraperitoneally in Swiss mice selected for the experiment on day 0. The next day, animals were randomized and divided into different groups. The treatment groups contained 7 animals each and control group contained 10 animals. The treatment group was treated with 20 mg/kg of Compound 2 intra-peritoneally from day 1-9. One more of the treatment group received 5-fluorouracil (20 mg/kg, i.p) and it served as positive control. The tumor bearing control group was similarly administered normal saline (0.2 ml, i.p.). On day 12, animals were sacrificed and ascitic fluid was collected from peritoneal cavity of each mouse for the evaluation of tumor growth. Percent tumor growth inhibition was calculated based on the total number of tumor cells present in the peritoneal cavity as on day 12 of the experiment using the following formula. Percent tumor growth inhibition = (Av.no.of cells in control group−Av.no.of cells in treated group)/(Av.no.of cells in control group) × 100 [formula]

[7] = test system: Ehrlich Tumor (solid); type: in vivo, Swiss mice
Procedure: Ehrlich ascites carcinoma (EAC) cells were collected from the peritoneal cavity of the Swiss mice harbouring 8-10 days old ascitic tumor. 1x10^7 EAC cells were injected intramuscularly in right thigh of Swiss male mice selected for the experiment on day 0. The next day, animals were randomized and divided into different groups. Two treatment groups contained 7 animals each and one control group contained 10 animals. The first treatment group was given compound 2 (20 mg/kg i/p) from day 1-9. The second treatment group was treated with 5-fluorouracil (22 mg/kg, i.p) from day 1-9 and it served as positive control. The control group was similarly administered normal saline (0.2 ml, i.p.) from day 1-9. On day 9 & 13, tumor bearing thigh of each animal was shaved and longest and shortest diameters of the tumor were measured with the help of vernier caliper. Tumor weight of each animal was calculated using the following formula. Tumor weight (mg) = (Length(mm) × ([width(mm)])^2)/(2) [formula]
The percent tumor growth inhibition was calculated on day 13 by comparing the average values of treated groups with that of control group. Tumor growth in saline treated control animals was taken to be 100%. Table 6. In-vivo anticancer activity of 2 against Ehrlich ascites carcinoma (solid)

[8] = test system: tubulin protein; type: biochemical; settings: read-out: Tubulin polymerisation inhibition IC50
Procedure: The tubulin polymerization experiment was performed using 'assay kit'(Cytoskeleton USA) following manufacturer's protocol based on the procedure described by of Shelanski et al, (1973) and Lee et al. (1977). Briefly, tubulin protein (3mg/mL) in tubulin polymerization buffer (80 mM PIPES, pH 6.9, 2 mM MgCl2, 0.5 mM EGTA, 1 mM GTP and 15% glycerol) was placed in prewarmed 96-well microtiter plates at 37° C in the presence of test compounds with variable concentrations. All samples were mixed well and polymerization was monitored kinetically at 340 nm every min for 1h using a Spectramax plate reader. The IC50 value was determined from dose-dependent analysis and is defined as the concentration that inhibits the rate of polymerization by 50%. Podophyllotoxin was used as standard tubulin polymerisation inhibitor as positive control.

[9] = test system: Hela (Cervix); experiment: Sulforhodamine B cytotoxicity assay; type: cell-based; settings: Homo sapiens, Concentration 20 µM
Procedure: as §1

`COc1cc(C2c3c(cc(OC)c(OC)c3OC)C(=O)C2Cc2ccc(F)cc2)cc(OC)c1OC` (centres unmarked) [Compound 4, 2-(4"-fluorobenzyl)-3-(3',4',5'-trimethoxyphenyl)-4,5,6-trimethoxy-indan-1-one] gave an IC50 [1] of 45 µM, an IC50 [2] of 36 µM and an IC50 [3] of 24 µM. It also gave an IC50 [4] of 22 µM and an IC50 [5] of 55 µM.

With `COc1cc(C2C(=Cc3ccc4c(c3)OCO4)C(=O)c3cc(OC)c(OC)c(OC)c32)cc(OC)c1OC` (centres unmarked) [Compound 12, 2-benzo[1,3]dioxo-5-ylmethylene-4,5,6-trimethoxy-3-(3,4,5-trimethoxyphenyl)-indan-1-one] the “%Tumor Growth Inhibition” value ([6]; 20 mg/kg i/p day 1-9, Day 12) was 45.5% and 45.48%, the “Av, Volume of ascitic fluid” value ([6]; 20 mg/kg i/p day 1-9, Day 12) was 6.11 mL and the “Av. Weight of ascitic fluid” value ([6]; 20 mg/kg i/p day 1-9, Day 12) was 5.88 g. The “% Tumor cell growth” value [6] was 54.52%, the Mortality [6] was 0/7 and the “Body weight Day 1” value ([6]; 20 mg/kg i/p day 1-9, EAC-bearing female Swiss mice, Day 1) was 21.42 g. The “Body weight Day 5” value ([6]; 20 mg/kg i/p day 1-9, EAC-bearing female Swiss mice, Day 5) was 22.85 g, the “Body weight Day 9” value ([6]; 20 mg/kg i/p day 1-9, EAC-bearing female Swiss mice, Day 9) was 22.42 g and the “Body weight Day 12” value ([6]; 20 mg/kg i/p day 1-9, EAC-bearing female Swiss mice, Day 12) was 23.16 g. For the same molecule, the “Day 13 Av. Tumor weights” value ([7]; 20 mg/kg i/p day 1-9, Day 13) was 1319.64 ± 56.46 mg, the “%Tumor Growth Inhibition” value ([7]; 20 mg/kg i/p day 1-9, day 13) was 35.9% and 35.91% and the Mortality ([7]; 20 mg/kg i/p day 1-9, dead/total animals) was 0/7. The “Day 13 Av. Body weights” value ([7]; 20 mg/kg i/p day 1-9, male Swiss mice, Day 13) was 23.71 g, the “Av. Body weights (g) of animals on days 1” value ([7]; 20 mg/kg i/p day 1-9, male Swiss mice, day 1) was 21.42 g and the IC50 [1] was 0.01 µM. The IC50 [3] was 11 µM, the IC50 [4] was 0.1 µM and the IC50 [5] was 4.9 µM. For the same molecule, the IC50 ([8]; tubulin 3mg/mL, 37° C, 340 nm, 1h) was 0.63 µM.

`COc1ccc(CC2C(=O)c3cc(OC)c(OC)c(OC)c3C2c2cc(OC)c(OC)c(OC)c2)c(OC)c1` (centres unmarked) [Compound 5, 2-(2",4"-dimethoxybenzyl)-3-(3',4',5'-trimethoxyphenyl)-4,5,6-trimethoxy-indan-1-one] was tested, and the IC50 [1] was 12 µM, the IC50 [2] was 12 µM and the IC50 [3] was 1 µM. The IC50 [4] was 4 µM and the IC50 [5] was 1 µM.

For `CC(=O)O[C@H]1C(=O)[C@@]2(C)[C@H]([C@H](OC(=O)c3ccccc3)[C@]3(O)C[C@H](OC(=O)[C@H](O)[C@@H](NC(=O)c4ccccc4)c4ccccc4)C(C)=C1C3(C)C)[C@]1(OC(C)=O)CO[C@@H]1C[C@@H]2O` [Paclitaxel, reference compound], the inhibition at 1 µM ([1]; Concentration 1 µM) was 77%, the inhibition at 1 µM ([2]; Concentration 1 µM) was 78% and the inhibition at 1 µM ([3]; Concentration 1 µM) was 88%. For the same molecule, the inhibition at 1 µM ([4]; Concentration 1 µM) was 45% and the inhibition at 1 µM ([5]; Concentration 1 µM) was 60%.

For `O=c1[nH]cc(F)c(=O)[nH]1` [5-Fluorouracil], the “%Tumor Growth Inhibition” value ([6]; 20 mg/kg i/p day 1-9, Day 12) was 95.4%, the “Av, Volume of ascitic fluid” value ([6]; 20 mg/kg i/p day 1-9, Day 12) was 0.7 mL and the “Av. No. of tumor cells” value ([6]; 20 mg/kg i/p day 1-9, Day 12) was 6.33 x 10^7. For the same molecule, the “Av. Weight of ascitic fluid” value ([6]; 20 mg/kg i/p day 1-9, Day 12) was 0.46 g, the “% Tumor cell growth” value [6] was 4.6% and the Mortality [6] was 0/7. For the same molecule, the “Day 13 Av. Tumor weights” value ([7]; 22 mg /Kg i/p day 1-9, Day 13) was 842.85 ± 129.92 mg, the “%Tumor Growth Inhibition” value ([7]; 22 mg /Kg i/p day 1-9, day 13) was 59.07% and the Mortality ([7]; 22 mg /Kg i/p day 1-9, dead/total animals) was 0/7. For the same molecule, the inhibition at 20 µM ([1]; Concentration 20 µM) was 50%, the inhibition at 20 µM ([2]; Concentration 20 µM) was 60% and the inhibition at 20 µM ([3]; Concentration 20 µM) was 54%. It also gave an inhibition at 20 µM ([4]; Concentration 20 µM) of 88%, an inhibition at 20 µM ([5]; Concentration 20 µM) of 90% and an inhibition at 20 µM [9] of 70%.
